This assay has as its system SARS-CoV-2. The experiment in a line: microbe, parasite or virus in culture. The settings on record: Severe acute respiratory syndrome coronavirus 2, Vero C1008, 48 h; for IC50: read-out: pIC50 (converted).

pIC50: −log10 of the molar value.

By pIC50 is commonly meant the negative decadic logarithm of the IC50, by convention in mol/L. A high value points to a small IC50. Consider `C/C=C(/C(=C/C)c1ccc(O)cc1)c1ccc(O)cc1` [DIENESTROL], for which the pIC50 is below 4.70 and the IC50 was above 20 µM.
For the molecule `Cc1ccc(C23CNCC2C3)cc1` (stereo unspecified) [BICIFADINE], the pIC50 is below 4.70 and the IC50 is above 20 µM.
For `CCC/N=C1\S/C(=C\c2ccc(OC[C@H](O)CO)c(Cl)c2)C(=O)N1c1ccccc1C` [PONESIMOD], in that order: below 4.70 and above 20 µM.
As to `CCn1ccc(NS(=O)(=O)c2ccc(N)cc2)nc1=O` [SULFACYTINE], the pIC50 was below 4.70 and the IC50 is above 20 µM.
In the case of `Cn1c(N2CCCCS2(=O)=O)nc(C(=O)NCc2ccc(F)cc2)c(O)c1=O` [BMS-707035], the pIC50 is below 4.70 and the IC50 is above 20 µM.
For `CNc1nccc(-c2cc3cc(C(=O)N[C@@H](CN(c4ccccc4)c4ncccn4)C(N)=O)ccc3[nH]2)n1` the same measures were below 4.70 and above 20 µM.
For `CCN(CC)C(=O)c1ccc(O)c(OC)c1`, in that order: below 4.70 and above 20 µM.
`CC(=O)O[C@H]1CC[C@@]2(C)C(=CC[C@@H]3[C@@H]2CC[C@]2(C)C(=O)CC[C@@H]32)C1` [DEHYDROEPIANDROSTERONE ACETATE]: the pIC50 is below 4.70 and the IC50 was above 20 µM.
For `CO[C@H]1/C=C\C=C(\C)C(=O)NC2=CC(=O)C(NCCN(C)C)=C(C[C@@H](C)C[C@H](OC)[C@H](O)[C@@H](C)/C=C(/C)[C@@H]1OC(N)=O)C2=O`, in that order: below 4.70 and above 20 µM.
In the case of `CC1=CC(=O)C2=C(C)CCC3C(C)C(=O)OC3C12` (stereo unspecified), the pIC50 is below 4.70 and the IC50 is above 20 µM.
`O=c1ccc2ccccc2o1` [COUMARIN]: the negative logarithm of the IC50 (pIC50) is below 4.70 and the IC50 is above 20 µM.
`C=C(C)[C@@H]1[C@H]2OC(=O)[C@H]1[C@]1(O)C[C@H]3O[C@]34C(=O)O[C@H]2[C@]14C`: the negative logarithm of the IC50 (pIC50) was below 4.70 and the IC50 is above 20 µM.
On to `NCC1(CC(=O)O)CCCCC1` [GABAPENTIN], for which the pIC50 is below 4.70 and the IC50 was above 20 µM.
For `CC(=O)NC(CCC(=O)O)C(=O)O` (stereo unspecified) [ACEGLUMATE] the same measures were below 4.70 and above 20 µM.
As for `COC[C@@H](c1ccc(C(F)(F)F)cc1)N1CCN(C2(C)CCN(C(=O)c3c(C)ncnc3C)CC2)C[C@@H]1C` [VICRIVIROC], the pIC50 is below 4.70 and the IC50 is above 20 µM.
Turning to `CC[C@@H](C)n1ncn(-c2ccc(N3CCN(c4ccc(OC[C@H]5CO[C@@](Cn6cncn6)(c6ccc(F)cc6F)O5)cc4)CC3)cc2)c1=O`, the pIC50 was below 4.70 and the IC50 is above 20 µM.
In the case of `COc1ccc(/C=C/C(=O)/C=C(O)/C=C/c2ccc(OC)c(OC)c2)cc1OC`, the pIC50 is below 4.70 and the IC50 is above 20 µM.
As for `Nc1ncnc2c1ncn2C1OC(COP(=O)(O)O)C(O)C1O` (stereo unspecified), the pIC50 was below 4.70 and the IC50 was above 20 µM.
For `COc1ccc(CC(N)C(=O)NC2C(CO)OC(n3cnc4c(N(C)C)ncnc43)C2O)cc1` (stereo unspecified), in that order: below 4.70 and above 20 µM.
`C[N+]1(C)CCC[C@H]1C(=O)[O-]`: the pIC50 was below 4.70 and the IC50 was above 20 µM.
Regarding `CCCCC(CC)CNC(=N)NC(=N)NCCCCCCNC(=N)NC(=N)NCC(CC)CCCC` (stereo unspecified) [ALEXIDINE], the negative-log IC50 (pIC50) was below 4.70 and the IC50 is above 20 µM.
Consider `O=C(c1ccc(Cl)cc1)n1cc(Cc2nnn[nH]2)c2ccccc21` [INTRAZOLE], for which the pIC50 is below 4.70 and the IC50 was above 20 µM.
Take `CC(C)(C(=O)c1cccnc1)c1cccnc1` [METYRAPONE]: the pIC50 was below 4.70 and the IC50 is above 20 µM.
On to `CNC(=O)c1c(I)c(C(=O)NCC(=O)Nc2c(I)c(C(=O)O)c(I)c(C(=O)NCCO)c2I)c(I)c(N(C)C(C)=O)c1I` [IOXAGLIC ACID], for which the pIC50 was below 4.70 and the IC50 was above 20 µM.
Take `CN1N=C2CCN(C(=O)[C@@H](COCc3ccccc3)NC(=O)C(C)(C)N)C[C@@]2(Cc2ccccc2)C1=O` [CAPROMORELIN]: the pIC50 is below 4.70 and the IC50 was above 20 µM.
Consider `NS(=O)(=O)OC[C@@H]1C[C@@H](n2ccc3c(N[C@H]4CCc5ccccc54)ncnc32)C[C@@H]1O` [PEVONEDISTAT], for which the pIC50 is below 4.70 and the IC50 was above 20 µM.
`CCN(CC)CCOC(=O)C(c1ccccc1)c1ccccc1` [ADIPHENINE]: the pIC50 was below 4.70 and the IC50 is above 20 µM.
`CCCc1ccc(C(=O)O)nc1`: the pIC50 is below 4.70 and the IC50 was above 20 µM.
In the case of `C[C@H]1O[C@@H](O[C@H]2[C@@H](O)C[C@H](O[C@H]3[C@@H](O)C[C@H](O[C@H]4CC[C@@]5(C)[C@H](CC[C@@H]6[C@@H]5C[C@@H](O)[C@]5(C)[C@@H](C7=CC(=O)OC7)CC[C@]65O)C4)O[C@@H]3C)O[C@@H]2C)C[C@H](O)[C@@H]1O` [DIGOXIN], the pIC50 was below 4.70 and the IC50 was above 20 µM.
In the case of `CC(=O)N[C@H]1[C@H](O[C@@H]2c3ccc(c(Cl)c3)Oc3cc4cc(c3O[C@@H]3O[C@H](CO)[C@@H](O)[C@H](O)[C@H]3NC(=O)CCCCCCC(C)C)Oc3ccc(cc3Cl)C[C@H]3NC(=O)[C@@H](N)c5ccc(O)c(c5)Oc5cc(O)cc(c5)[C@H](NC3=O)C(=O)N[C@H]4C(=O)N[C@H]3C(=O)N[C@@H]2C(=O)N[C@@H](C(=O)O)c2cc(O)cc(O[C@H]4O[C@H](CO)[C@@H](O)[C@H](O)[C@@H]4O)c2-c2cc3ccc2O)O[C@H](CO)[C@@H](O)[C@@H]1O`, the pIC50 was below 4.70 and the IC50 was above 20 µM.
For `CC(C)(C)c1ccc(S(=O)(=O)Nc2ccc(Cl)cc2C(=O)c2cc[n+]([O-])cc2)cc1` [VERCIRNON], in that order: below 4.70 and above 20 µM.
For `Oc1c(Cl)cc(Cl)c2cccnc12` [CHLOROXINE], in that order: below 4.70 and above 20 µM.
Consider `CN(C)CCC(c1ccccc1)C1CCCCC1` (stereo unspecified) [GAMFEXINE], for which the pIC50 was below 4.70 and the IC50 is above 20 µM.
`C[N+]1(CCC(C(N)=O)(c2ccccc2)c2ccccc2)CCCCCC1` [BUZEPIDE]: the pIC50 is below 4.70 and the IC50 is above 20 µM.
Take `CCCCCCCCCCCCCC(=O)O[C@@H]1[C@@H](C)[C@@]2(O)[C@@H](C=C(CO)C[C@]3(O)C(=O)C(C)=C[C@@H]23)[C@@H]2C(C)(C)[C@]12OC(C)=O` [PHORBOL MYRISTATE ACETATE]: the pIC50 was below 4.70 and the IC50 was above 20 µM.
For `O=C(O)C[C@H](O)C[C@H](O)/C=C/c1c(C2CC2)nc2ccccc2c1-c1ccc(F)cc1` [PITAVASTATIN], in that order: below 4.30 and above 50.1 µM.
Take `C#C[C@@]1(O)[C@@H](CO)O[C@@H](n2ccc(N)nc2=O)[C@@H]1O` [TAS-106]: the pIC50 was below 4.70 and the IC50 was above 20 µM.
For `CC[C@H](O)C(C[C@@H](C)N(C)C)(c1ccccc1)c1ccccc1` [BETAMETHADOL], in that order: below 4.70 and above 20 µM.
`COCC(=O)Nc1ccc(/N=C(\C)N(C)C)cc1`: the pIC50 is below 4.70 and the IC50 was above 20 µM.
For `OC[C@H]1O[C@@H](Oc2cc(O)cc(/C=C/c3ccc(O)cc3)c2)[C@H](O)[C@@H](O)[C@@H]1O` [PICEID], the pIC50 was below 4.70 and the IC50 is above 20 µM.
On to `COc1ccc([C@@H]2Sc3ccccc3N(CCN(C)C)C(=O)[C@@H]2OC(C)=O)cc1` [DILTIAZEM], for which the pIC50 is below 4.70 and the IC50 is above 20 µM.
As for `C[C@@H](N)c1ccc(C(=O)Nc2ccnc3[nH]ccc23)cc1` [Y-39983], the pIC50 was below 4.70 and the IC50 was above 20 µM.
For `c1cnc2c(c1)C[C@@]1(CN3CCC1CC3)O2` [AZD0328], the pIC50 was below 4.70 and the IC50 is above 20 µM.
Consider `CNc1cccc(NC(=O)NC2N=C(c3ccccn3)c3ccccc3N(CC(=O)C(C)(C)C)C2=O)c1` (stereo unspecified), for which the pIC50 is below 4.70 and the IC50 is above 20 µM.
`O=C(O)C=Cc1ccc(O)c(O)c1`: the pIC50 is below 4.70 and the IC50 is above 20 µM.
As to `O[C@@H](c1cc(C(F)(F)F)nc2c(C(F)(F)F)cccc12)[C@H]1CCCCN1` [(S,R)-MEFLOQUINE], the pIC50 is below 4.70 and the IC50 is above 20 µM.
In the case of `CCCCC1(COC(=O)CCC(=O)O)C(=O)N(c2ccccc2)N(c2ccccc2)C1=O` [SUXIBUZONE], the pIC50 was below 4.70 and the IC50 was above 20 µM.
Regarding `CN(CC(=O)O)C(=N)N` [CREATINE], the pIC50 is below 4.70 and the IC50 is above 20 µM.
For `CNC(C)(C)Cc1ccccc1` [MEPHENTERMINE], the pIC50 was below 4.70 and the IC50 is above 20 µM.
For the molecule `c1ccc(C(CCN2CCCCCC2)c2ccccc2)cc1` [PROZAPINE], the pIC50 was below 4.70 and the IC50 was above 20 µM.
`CC(C[N+](C)(C)C)OC(N)=O` (stereo unspecified) [BETHANECHOL]: the pIC50 was below 4.70 and the IC50 is above 20 µM.
As for `CN1CC(O)C2=CC(=O)C(=O)C=C21` (stereo unspecified), the pIC50 is below 4.70 and the IC50 is above 20 µM.
Consider `O=C(O)C1=CCNCC1` [ISOGUVACINE], for which the pIC50 was below 4.70 and the IC50 is above 20 µM.
Turning to `N=C(N)NC(=O)c1nc(Cl)c(N2CCCCCC2)nc1N` [N,N-HEXAMETHYLENEAMILORIDE], the pIC50 is below 4.70 and the IC50 was above 20 µM.
Consider `CCN(c1ccccc1)c1cc(NC)[n+](C)c(C)n1`, for which the pIC50 is below 4.70 and the IC50 is above 20 µM.
Turning to `CC(C)(C)NC(=O)[C@@H]1CN(Cc2cccnc2)CCN1C[C@@H](O)C[C@@H](Cc1ccccc1)C(=O)N[C@H]1c2ccccc2C[C@H]1O`, the pIC50 was below 5.00 and the IC50 was above 10 µM.
For `c1ccc2c(c1)OCC(C1=NCCN1)O2` (stereo unspecified) [IDAZOXAN], the pIC50 is below 4.70 and the IC50 is above 20 µM.
Take `CCN1CCN=C1CNC(=O)c1cc(Cl)c(N)cc1OC` [LINTOPRIDE]: the pIC50 is below 4.70 and the IC50 was above 20 µM.

Source of the values: ChEMBL document CHEMBL4651402, “Screening of ~5500 FDA-approved drugs and clinical candidates for anti-SARS-CoV-2 activity” (2021).
